According to the NIST ThermoML archive (doi:10.1007/s10765-005-8590-7):

Assay: xn = mol fraction of the nth substance listed
Details: Fluid (supercritical or subcritical phases), Constant-volume piezometry

N [ammonia] + O
Details | mass density [kg/m3]
253.18 K, 483.5 kPa, x1 = 0.1386 | 956.4
254.14 K, 619.3 kPa, x1 = 0.1386 | 956.35
257.06 K, 1159.1 kPa, x1 = 0.1386 | 956.19
259.15 K, 1375.1 kPa, x1 = 0.1086 | 964.04
259.15 K, 1646.6 kPa, x1 = 0.1386 | 956.07
260.13 K, 3144.3 kPa, x1 = 0.0999 | 971.4
260.15 K, 1417.1 kPa, x1 = 0.1086 | 963.99
260.15 K, 3759 kPa, x1 = 0.0955 | 968.65
261.02 K, 2146.1 kPa, x1 = 0.1386 | 955.96
261.14 K, 1483.6 kPa, x1 = 0.1086 | 963.95
261.15 K, 3146.8 kPa, x1 = 0.0999 | 971.36
261.15 K, 3737.1 kPa, x1 = 0.0955 | 968.61
262.12 K, 3739.8 kPa, x1 = 0.0955 | 968.57
262.15 K, 1572 kPa, x1 = 0.1086 | 963.9
262.15 K, 3173.9 kPa, x1 = 0.0999 | 971.31
263.13 K, 1676.5 kPa, x1 = 0.1086 | 963.85
263.13 K, 1686.6 kPa, x1 = 0.1086 | 963.85
263.13 K, 3221.1 kPa, x1 = 0.0999 | 971.27
263.16 K, 3225.1 kPa, x1 = 0.0999 | 971.27
263.16 K, 3766.5 kPa, x1 = 0.0955 | 968.52
263.96 K, 16220 kPa, x1 = 0.0606 | 987.12
264.11 K, 3813.7 kPa, x1 = 0.0955 | 968.48
264.14 K, 3297.9 kPa, x1 = 0.0999 | 971.22
264.15 K, 1824.1 kPa, x1 = 0.1086 | 963.8
265 K, 16117 kPa, x1 = 0.0606 | 987.08
265.13 K, 3469.4 kPa, x1 = 0.1386 | 955.71
265.15 K, 1981.7 kPa, x1 = 0.1086 | 963.75
265.15 K, 3396.5 kPa, x1 = 0.0999 | 971.17
265.15 K, 3889.7 kPa, x1 = 0.0955 | 968.43
265.18 K, 5311.9 kPa, x1 = 0.0644 | 979.94
265.38 K, 8334.6 kPa, x1 = 0.064 | 980.35
265.62 K, 811.9 kPa, x1 = 0.0591 | 975.65
265.99 K, 16054 kPa, x1 = 0.0606 | 987.04
266.12 K, 16223 kPa, x1 = 0.047 | 989.78
266.14 K, 745.3 kPa, x1 = 0.0591 | 975.64
266.14 K, 8277 kPa, x1 = 0.064 | 980.32
266.15 K, 2619 kPa, x1 = 0.0582 | 979.8
266.63 K, 698.1 kPa, x1 = 0.0591 | 975.62
267.09 K, 4204.5 kPa, x1 = 0.1386 | 955.58
267.13 K, 2495.5 kPa, x1 = 0.0582 | 979.77
267.14 K, 8221.5 kPa, x1 = 0.064 | 980.28
267.15 K, 298 kPa, x1 = 0.1436 | 952.4
267.15 K, 2355.6 kPa, x1 = 0.1086 | 963.64
267.15 K, 3654.7 kPa, x1 = 0.0999 | 971.07
267.15 K, 16033 kPa, x1 = 0.047 | 989.74
267.16 K, 634.7 kPa, x1 = 0.0591 | 975.6
267.17 K, 5193.7 kPa, x1 = 0.0644 | 979.87
268.02 K, 15974 kPa, x1 = 0.0606 | 986.96
268.1 K, 7316.4 kPa, x1 = 0.0513 | 984.85
268.15 K, 723.3 kPa, x1 = 0.1436 | 952.33
268.17 K, 2415.7 kPa, x1 = 0.0582 | 979.73
268.17 K, 15948 kPa, x1 = 0.047 | 989.7
269 K, 15979 kPa, x1 = 0.0606 | 986.92
269.1 K, 7244.1 kPa, x1 = 0.0513 | 984.81
269.1 K, 7256.7 kPa, x1 = 0.0513 | 984.81
269.11 K, 500.6 kPa, x1 = 0.0591 | 975.52
269.14 K, 2812.6 kPa, x1 = 0.1086 | 963.53
269.14 K, 5179.9 kPa, x1 = 0.0644 | 979.78
269.15 K, 1141.1 kPa, x1 = 0.1436 | 952.26
269.15 K, 4001.7 kPa, x1 = 0.0999 | 970.97
269.15 K, 8192.6 kPa, x1 = 0.064 | 980.19
269.15 K, 8194.7 kPa, x1 = 0.064 | 980.19
269.17 K, 15892 kPa, x1 = 0.047 | 989.66
269.18 K, 4424 kPa, x1 = 0.0955 | 968.23
269.19 K, 2364.1 kPa, x1 = 0.0582 | 979.69
269.2 K, 5071.6 kPa, x1 = 0.1386 | 955.44
270.13 K, 15862 kPa, x1 = 0.047 | 989.62
270.14 K, 4346.8 kPa, x1 = 0.0302 | 991.12
270.15 K, 1609 kPa, x1 = 0.1436 | 952.18
270.15 K, 7195.1 kPa, x1 = 0.0513 | 984.77
270.15 K, 15862 kPa, x1 = 0.047 | 989.62
270.99 K, 16062 kPa, x1 = 0.0606 | 986.82
271.11 K, 15856 kPa, x1 = 0.047 | 989.57
271.12 K, 467.5 kPa, x1 = 0.0591 | 975.44
271.13 K, 15857 kPa, x1 = 0.047 | 989.57
271.14 K, 3349.5 kPa, x1 = 0.1086 | 963.41
271.15 K, 2091.5 kPa, x1 = 0.1436 | 952.11
271.15 K, 3960.4 kPa, x1 = 0.014 | 996.21
271.15 K, 7177.2 kPa, x1 = 0.0513 | 984.72
271.15 K, 8265.9 kPa, x1 = 0.064 | 980.1
271.16 K, 4437.7 kPa, x1 = 0.0999 | 970.85
271.17 K, 4208.2 kPa, x1 = 0.0302 | 991.09
271.17 K, 5274.3 kPa, x1 = 0.0644 | 979.69
271.18 K, 2339.7 kPa, x1 = 0.0582 | 979.6
271.18 K, 4814.2 kPa, x1 = 0.0955 | 968.12
272.15 K, 3778.7 kPa, x1 = 0.014 | 996.18
272.15 K, 4113.5 kPa, x1 = 0.0302 | 991.05
272.15 K, 7185.7 kPa, x1 = 0.0513 | 984.68
272.15 K, 15879 kPa, x1 = 0.047 | 989.53
273.13 K, 4952 kPa, x1 = 0.0999 | 970.74
273.14 K, 506.6 kPa, x1 = 0.0591 | 975.35
273.14 K, 4040.3 kPa, x1 = 0.0302 | 991.01
273.14 K, 16263 kPa, x1 = 0.0606 | 986.71
273.15 K, 2431.2 kPa, x1 = 0.0582 | 979.51
273.15 K, 3104.4 kPa, x1 = 0.1436 | 951.96
273.15 K, 3633.6 kPa, x1 = 0.014 | 996.14
273.15 K, 3634.2 kPa, x1 = 0.014 | 996.14
273.15 K, 3935 kPa, x1 = 0.1086 | 963.29
273.15 K, 7219.4 kPa, x1 = 0.0513 | 984.63
273.15 K, 8435.9 kPa, x1 = 0.064 | 980.01
273.17 K, 15928 kPa, x1 = 0.047 | 989.48
274.14 K, 16000 kPa, x1 = 0.047 | 989.44
274.15 K, 3992.2 kPa, x1 = 0.0302 | 990.97
274.15 K, 7279.5 kPa, x1 = 0.0513 | 984.59
274.99 K, 16547 kPa, x1 = 0.0606 | 986.61
275.08 K, 7892.7 kPa, x1 = 0.1386 | 955.03
275.13 K, 677.5 kPa, x1 = 0.0591 | 975.25
275.14 K, 2612.8 kPa, x1 = 0.0582 | 979.41
275.15 K, 3430.4 kPa, x1 = 0.014 | 996.07
275.15 K, 3431.2 kPa, x1 = 0.014 | 996.07
275.15 K, 3970.2 kPa, x1 = 0.0302 | 990.93
275.15 K, 4178.5 kPa, x1 = 0.1436 | 951.81
275.15 K, 4633.1 kPa, x1 = 0.1086 | 963.16
